Test results from patent publication US8017767B2, “Sucralose composition” (Tate & Lyle Public Limited Company, priority 2000, dated 2011).

Assay: Accelerated stability test (50° C.) with pH stability test of sucralose sample solution
Format: physicochemical
Conditions: for Days to pH Failure: WHIRLPAK polyethylene bags, failure = pH drop ≧1.0; for Initial pH: sample solution (5 g in 50 ml pH-adjusted water) at time zero; for Initial pH difference: sample solution vs pH-adjusted water at time zero
Excerpt: Label seven 6 oz. and seven 18 oz. WHIRLPAK® polyethylene bags with indelible marker for each batch being tested for stability. Accurately weigh 25 g±0.01 g of sucralose into each 6 oz. WHIRLPAK® polyethylene bag. Heat or impulse seal the 6 oz. bag to ensure air tightness. Cut off any excess polyethylene at the top of the bag above the seal. Place the 6 oz. sealed bag into the 18 oz. bag and heat or impulse seal the 18 oz. bag to ensure air tightness. Roll down the top of the 18 oz. bag above the seal and bend the metal ties to form hooks.
Place the prepared bags into an oven stabilized at 50° C.±0.5° C. by hanging them from racks by the bag hooks. The bags must be freely suspended and not touch anything. Record the time samples are placed into the oven.
The pH stability test is conducted on the sucralose at time zero (the day the samples are placed in the oven, before the sucralose is exposed to elevated temperature) and every 24 hours until the batch being tested fails the test.
Place approximately 100 ml of deionized water into a 150 ml beaker. Using 0.1 N hydrochloric acid and/or 0.1 N sodium hydroxide, adjust the pH of the water to be between 5.8 and 6.0. Record the pH reading.
Accurately weigh 5 g±0.001 g of the product to be tested and transfer it to a 50 ml volumetric flask. Dissolve and bring to the mark by adding pH-adjusted water. If the sample to be tested is one that has been exposed to heat, remove one bag of the batch being tested from the oven and allow it to cool to room temperature before opening and sampling.
Pour the solution into a 100 ml beaker containing a stir bar, and slowly stir the solution on a magnetic stirrer. Immerse the pH electrode in the sample, allow the pH reading to stabilize, and record the pH reading of the sample. If no pH drop is observed after all the bags have been tested, the experiment is void and the test must repeated with a larger number of bags.
Record (to one decimal place) the pH of both the pH-adjusted water used and the sample sucralose solution. Subtract the pH of the […]. Report the result as (−) for a pH drop and (+) for a pH gain, e.g.:
The sample fails the test if there is a pH drop of 1.0 pH unit or more. The pH stability of the batch is defined as the number of days until the pH drop between the sample solution and that of the pH adjusted water is ≧1.0.
Samples of sucralose were tested for stability using the above procedures, but using bags of different moisture permeability. All other experimental details were the same. The TYVEK®/polyethylene bags are permeable; the WHIRLPAK® bags are less permeable. The A8080 bag consists of aluminum foil laminated to low-density polyethylene, which makes it very impermeable to moisture.

[1] = 50° C., Example 1, sodium acetate in mother liquor varied
[2] = Example 1, sodium acetate in mother liquor varied
[3] = (−) pH drop, (+) pH gain, Example 1
[4] = 50° C., Example 2, pH at crystallizer varied
[5] = Example 2, pH at crystallizer varied

SMILES | Days to pH Failure [1] | Initial pH [2] | Initial pH difference [3] | Days to pH Failure [4] | Initial pH difference [5] | stability at intermediate moisture contents compared with final moisture levels (crystallized with no pH control, intermediate moisture 3 to 5% vs final 0.05, 0.11, 0.21%) | Days to pH Failure (Final Product Moisture Content) (50° C., final dried product, Example 3) | Days to pH Failure (Initial Moisture Content) (50° C., partially dried product at intermediate (initial) moisture content, Example 3)
OC[C@H]1O[C@H](O[C@]2(CCl)O[C@H](CCl)[C@@H](O)[C@@H]2O)[C@H](O)[C@@H](O)[C@H]1Cl [Sample 2, 4,1′,6′-trichloro-4,1′,6′-trideoxy-galactosucrose] | 6 Days | 5.73 | −0.19 |  |  |  |  | 
OC[C@H]1O[C@H](O[C@]2(CCl)O[C@H](CCl)[C@@H](O)[C@@H]2O)[C@H](O)[C@@H](O)[C@H]1Cl [Sample 11, 4,1′,6′-trichloro-4,1′,6′-trideoxy-galactosucrose] | 6 Days | 6.05 | +0.10 |  |  |  |  | 
OC[C@H]1O[C@H](O[C@]2(CCl)O[C@H](CCl)[C@@H](O)[C@@H]2O)[C@H](O)[C@@H](O)[C@H]1Cl [Sample 23, 4,1′,6′-trichloro-4,1′,6′-trideoxy-galactosucrose] | 5 Days | 6.12 | +0.13 |  |  |  |  | 
OC[C@H]1O[C@H](O[C@]2(CCl)O[C@H](CCl)[C@@H](O)[C@@H]2O)[C@H](O)[C@@H](O)[C@H]1Cl [Sample 45, 4,1′,6′-trichloro-4,1′,6′-trideoxy-galactosucrose] |  |  |  | 7 Days | +0.17 |  |  | 
OC[C@H]1O[C@H](O[C@]2(CCl)O[C@H](CCl)[C@@H](O)[C@@H]2O)[C@H](O)[C@@H](O)[C@H]1Cl [Sample 34, 4,1′,6′-trichloro-4,1′,6′-trideoxy-galactosucrose] |  |  |  | 3 Days | −1.03 | less stable at intermediate moisture contents (3 to 5%) than they were at their final moisture levels |  | 
OC[C@H]1O[C@H](O[C@]2(CCl)O[C@H](CCl)[C@@H](O)[C@@H]2O)[C@H](O)[C@@H](O)[C@H]1Cl [Sample 39, 4,1′,6′-trichloro-4,1′,6′-trideoxy-galactosucrose] |  |  |  | 7 Days | −0.02 |  | 7 Days | 13 Days
